A short description of series [1]: Pharmacokinetics IV and PO in CD-1 mice, plasma. It is filed as in vivo. Conditions: mouse plasma. From the text: The PK studies were done at NIH or a commercial CRO—Pharmacon using their in-house standard protocol. […] For C99, IV and PO, performed at NIH using CD-1 mice; formulation: 20% HPbCD in saline.
For series [2], the system named is SNU398 human HCC cells. Kind of series: AldeRed (Aldefluor) assay in SNU398 cells. It is filed as cell-based. As to the method: (§1) The AldeRed assay (EMD Millipore) was performed according to manufacturer's instructions to identify cells with ALDH activity. In brief, single-cell suspensions of Huh7, Huh1, SNU449, SNU398, HEP3B, PLC, Hepa 1-6, Hep55, and AL458A cultured cells or single-cell suspension generated from enzymatic digestion of tumors generated from transplantation of these cells in mice (as indicated in figure legends) were incubated with a fluorescent and non-toxic ALDH substrate (AldeRed 588-A); the fluorescent product accumulates in cells proportional to their ALDH activity. The amount of fluorescence produced is measured by flow cytometry. The ALDH inhibitor diethylaminobenzaldehyde (DEAB, provided with the AldeRed assay kit) was used as a negative control for background fluorescence assessment.
The Aldefluor assay has been used to identify and isolate cells with high ALDH activities. This assay is based on the principle that ALDH can convert the ALDH-substrate, Bodipy-aminoacetaldehyde (BAAA) into Bodipy-aminoacetate (BAA) which is retained inside the cells. BAAA is uncharged and can diffuse freely into intact viable cells, however BAA cannot cross the membrane due to its net negative charge, which makes remain in the cells and the assay buffer prevents efflux of the BAA from the cells. Therefore, the amount of BAA fluorescence in cells is proportional to ALDH activity and can be measured using a flow cytometer. A specific inhibitor of ALDH, diethylaminobenzaldehyde (DEAB), is used for background fluorescence control.

Series [3] has as its system murine HCC cell line (Hepa1-6). As to the kind of experiment: AldeRed assay in Hepa1-6 cells. It is filed as cell-based, mouse. As to the method: Cultures of tumor cells or primary monocyte-derived cells were treated with C86, C91, C99, BMS 493 (Tocris, 3509) or Win 18446 (Tocris, 4736) at a time and concentration indicated in corresponding figure legends.
as §1

Series [4] has as its system Hepa 1-6 tumors. Kind of series: Hepa 1-6 tumors in mice. It is filed as in vivo, mouse. As for the experimental part: FIGS. 28A-28G: C99 inhibits murine RALDH1 and suppresses murine HCC growth. FIG. 28A: AldeRed assay was performed on Hepa1-6 (murine HCC, left graph) and SNU398 (human HCC, right graph) cells with or without different concentration of C99 (x-axis). Shown is the percentage of AldeRed-positive cells (y-axis) after 24 hours exposure to C99. Murine RALDH1 is sensitive to C99. FIG. 28B: Hepa1-6 cells were treated with different concentrations of C99 in vitro and the number of viable cells were counted at different time points. […] FIG. 28C: C57BL6/J mice were implanted subcutaneously with Hepa1-6 cells and the tumor-bearing mice. To prevent spontaneous rejection of this cell line, mice were treated with anti-CD3. Once the tumors reached around 50 mm^3 size, mice were treated with C86 or C99 (i.p., 20 mg/kg) every day. […] C99, but not C86, suppresses murine HCC growth. Two independent experiments were performed with at least three replicates per experimental group. Unpaired t test, two-tailed. FIG. 28D: Tumors in (FIG. 28C) were harvested at endpoint, single-cell suspension generated, and AldeRed assay was performed along with surface staining with immune cell markers. Shown is the percentage of AldeRed-positive cells in nonleukocytes (CD45 negative, mostly tumor cells) under the different treatment conditions. Two independent experiments were performed with at least three replicates per experimental group. Unpaired t test, two-tailed. FIG. 28E: FCS base frequency of Macrophages (F4/80^+ cells) within CD45^+ leukocytes in tumor tissues from experiment outlined in (FIGS. 28C-28D). Two independent experiments were performed with at least three replicates per experimental group. Unpaired t test, two-tailed. FIG. 28F: Hepa1-6 tumor-bearing NU/J mice were treated with chlodronate liposomes (CloLipo) and/or C86/C99. CloLipo treatment suppresses tumor growth and renders tumors insensitive to C99. Two independent experiments were performed with at least three replicates per experimental group. Unpaired t test, two-tailed. FIG. 28G: The murine fibrosarcoma (FS) cell line was implanted subcutaneously into C57BL6/J mice. Mice were treated with 25 mg/kg of C-99 or vehicle everyday starting one day after tumor cell transplantation. *, P<0.05; **, P<0.01; ***, P<0.001; ns, not significant.
Cultured Huh7, Huh1, Hepa 1-6, Hep55, and FS (as indicated in figure legends) tumor cells were detached using 0.25% trypsin (Gibco, catalog #25200056), washed once with 1×PBS, and counted before implantation. 3~6×10^6 tumor cells were implanted subcutaneously (s.c.) into shaved flanks of recipient mice. Tumor dimensions were measured using a caliper starting at the day indicated in the accompanying figure legend and every two to three days thereafter; volume was calculated by using formula Length*Width^2/2. Tumor volumes of 2,000 mm^3, tumor length of 2 cm or tumor ulceration were used as endpoints for survival analyses.
To deplete T cells, 200 μg of mouse CD3-specific antibody (clone 17A2) was administered i.p. starting three days before tumor implantation and repeated every three to four days until mouse sacrifice. To deplete macrophages, 200 μL of clodronate liposome (CloLipo) or PBS-liposome (CtrlLipo) (both Liposoma) was administered i.p. starting three days prior to tumor implantation and repeated every four days until mouse sacrifice. Macrophage depletion efficacy in spleen and within tumors was confirmed by flow cytometry using canonical macrophage marker F4/80. […]

Series [5] has as its system murine fibrosarcoma (FS) cell line. Kind of series: FS murine fibrosarcoma in C57BL6/J mice. It is filed as in vivo, mouse. Conditions: 25 mg/kg everyday. As for the experimental part: FIGS. 28A-28G: C99 inhibits murine RALDH1 and suppresses murine HCC growth. FIG. 28A: AldeRed assay was performed on Hepa1-6 (murine HCC, left graph) and SNU398 (human HCC, right graph) cells with or without different concentration of C99 (x-axis). Shown is the percentage of AldeRed-positive cells (y-axis) after 24 hours exposure to C99. Murine RALDH1 is sensitive to C99. FIG. 28B: Hepa1-6 cells were treated with different concentrations of C99 in vitro and the number of viable cells were counted at different time points. […] FIG. 28C: C57BL6/J mice were implanted subcutaneously with Hepa1-6 cells and the tumor-bearing mice. To prevent spontaneous rejection of this cell line, mice were treated with anti-CD3. Once the tumors reached around 50 mm^3 size, mice were treated with C86 or C99 (i.p., 20 mg/kg) every day. […] C99, but not C86, suppresses murine HCC growth. Two independent experiments were performed with at least three replicates per experimental group. […]
Cultured Huh7, Huh1, Hepa 1-6, Hep55, and FS (as indicated in figure legends) tumor cells were detached using 0.25% trypsin (Gibco, catalog #25200056), washed once with 1×PBS, and counted before implantation. […] Tumor dimensions were measured using a caliper starting at the day indicated in the accompanying figure legend and every two to three days thereafter; volume was calculated by using formula Length*Width^2/2. […]

Series [6] deals with Hepa 1-6 cells. Kind of series: In vitro proliferation and viability of Hepa 1-6 cells. It is filed as cell-based, mouse. Particulars: murine HCC cell line Hepa 1-6.
Series [7] deals with human RALDH isozymes. Kind of series: IC50 on human RALDH isozymes (FIG. 29A). It is filed as biochemical.
Series [8] concerns SNU398 cells. As to the kind of experiment: In vitro proliferation and viability of human HCC cell lines. Type of series: cell-based. As for the experimental part: FIG. 20D: LC-MS for ATRA on Hepa1-6 (mouse HCC cell line) or SNU398 (human HCC cell line). […] Two independent experiments were performed with at least three replicates per experimental group. Unpaired t test, two-tailed. *, P<0.05; **, P<0.01; ***, P<0.001. […] Cell proliferation was measured by counting live cell numbers at each time point. […] Cell proliferation was measured by counting live cell numbers at each time point.
Cell viability was measured by flow cytometry (FCM) with 7-AAD staining (Y-axis indicates percentage of 7-AAD negative cells).
1×10^4~2×10^5 of Huh7, Huh1, Hepa 1-6, and Hep55 tumor cells were plated in triplicate in 48-well plates or 6-well plates. Viable cell numbers were counted every day for three to four days.

Series [9] relates to SNU398 cells. Kind of series: RT-qPCR of Raldh1, Raldh2 and Raldh3 transcripts in SNU398 cells. It is filed as cell-based, human. Particulars: SNU398, 24 hours. As for the experimental part:
FIG. 21A: Transcript levels (RT-qPCR) of Raldh1, Raldh2 and Raldh3 in SNU398 cells treated with different concentrations of C86 or C91 for 24 hours. FIG. 21B: Homology modeling identifies differences in amino acid residues between human and murine RALDH1 at sites predicted to bind RALDH1-INH. FIG. 21C: SNU398 cells were treated with various concentrations of C86 or C91 for 24 hours. Cell viability was measured by flow cytometry (FCM) with 7-AAD staining (Y-axis indicates percentage of 7-AAD negative cells).
Total RNA from mouse tissue samples and in vitro cultured cells was isolated using GenElute Mammalian Total RNA Miniprep Kit (Sigma) following the manufacturer's protocol. Total RNA from human FFPE samples was isolated by using Quick-RNA FFPE Miniprep Kit (Zymo Research) using the manufacturer's protocol. 1000 ng of RNA was used for reverse transcription using High Capacity RNA to cDNA Kit (Life Technologies). The cDNA product was 10× diluted. 2.5 μL of this cDNA was used for qPCR for each sample. Three or more replicates were used for each reaction. […] Expression fold was calculated as 2^−(CT target gene−CT housekeeping gene). Quantitative PCRs were run on a Viia 7 real time PCR system (ThermoFisher). The following target and housekeeping genes were measured using the commercially available TaqMan probes (ThermoFisher): […]
Background: Quantitative PCR measures a nucleic acid by following its amplification.

The conditions of series [10]: mouse, in vivo.
Procedure: Male CD1 or C57BL/6J mice between 6 and 8 weeks old and weighing approximately 20 to 30 grams were dosed with compound 86, compound 91, and compound 99 at 2 mg/kg (IV), 10 mg/kg (PO), and 10 or 30 mg/kg (IP). The compounds were formulated using a 20% hydroxypropyl-beta-cyclodextrin (HPbCD) solution in saline, was made on the day of dosing or directly prior to dosing. Each treatment group consisted of three mice, and plasma was collected at 5 minutes, 15 minutes, 30 minutes, 1 hour, 2 hours, 4 hours, 8 hours, 12 hours, and 24 hours post-dose for IV administration and at 15 minutes, 30 minutes, 1 hour, 2 hours, 4 hours, 8 hours, 12 hours, and 24 hours post-dose for PO administration. Approximately 0.025 mL of blood was collected from the dorsal metatarsal vein at each time point. […] Plasma samples were then stored in polypropylene tubes, quickly frozen, and kept at −75° C. until analyzed by LC/MS/MS. The following pharmacokinetic parameters were measured: Terminal half-life (T½), Concentration at immediately after injection (C0), Maximum concentration (Cmax), Time to reach max concentration (Tmax), Clearance (CL), Volume of distribution (Vd), Area under the curve (AUClast), and bioavailability (% F). Animals were also monitored during the in-life phase by once daily cage side observations; any adverse clinical signs were noted as part of the PK report.
The mark [11] stands for this setting: male, CD-1, intravenous administration, 2 mg/kg.
Where [12] appears, read: male, CD-1, oral administration, 10 mg/kg.
[13] abbreviates: intravenous administration, 2 mg/kg.

Entries after “also recorded” stand apart in the source; their conditions may differ. Where two headings read alike, the source gives them in different places.

As a reminder, the AUC(0-inf) is total exposure, with the tail of the curve extrapolated. Read a low AUC(0-inf) as less exposure. As a reminder, the half-life is how long it takes for the measured level to halve. A lower half-life goes with rapid decline. Usually Cmax stands for the peak of the concentration-time curve. Turning to `C=CS(=O)(=O)N1CCN(c2c(C(=O)N3CCN(S(C)(=O)=O)CC3)cnc3ccc(F)cc23)CC1` [Compound C-99, (6-fluoro-4-(4-(vinylsulfonyl)piperazin-1-yl)quinolin-3-yl)(4-(methylsulfonyl)piperazin-1-yl)methanone], the AUC(0-inf) in series [1] (setting [11]) came out at 37 ng·h/mL; in series [1] (setting [12]) it was 11 ng·h/mL. Moreover, the half-life in series [1] (setting [11]) is 6 min; in series [1] (setting [12]), 30 min. Also, the clearance in series [1] (male, CD-1, intravenous administration, 2 mg/kg, read-out: CLp) was 887 mL/min/kg. Also, the Cmax was 117 ng/mL in [1] (male, CD-1, intravenous administration, 2 mg/kg, read-out: Cmax) and 16 ng/mL in [1] (male, CD-1, oral administration, 10 mg/kg, read-out: Cmax). The Vd in series [1] (male, CD-1, intravenous administration, 2 mg/kg, read-out: Vss) amounted to 2.7 L/kg. Besides, the F in series [1] (oral administration, 10 mg/kg) stood at 6.3%. The “concentration range suppressing RALDH1 activity” value in [2] (AldeRed assay, FIG. 28A and FIG. 20A) was “micromolar”. Moreover, the “RALDH1 activity (AldeRed-positive cells)” value is listed as “suppressed RALDH1 activity” in series [2] (human HCC cell line, 24 hours exposure) and “suppressed RALDH1 activity” in series [3] (murine HCC cell line, 24 hours exposure). The “sensitivity of TAM-depleted tumors to treatment” value in [4] (Hepa 1-6, CloLipo-treated) was “insensitive to C99 treatment”. Moreover, the “tumor growth in vivo” value in series [4] (Hepa 1-6 in C57BL6/J mice treated with anti-CD3, i.p., 20 mg/kg every day) is given as “significantly suppressed tumor growth in vivo”. In addition, the “frequency of TAMs within the TME” value in series [4] (Hepa 1-6 tumors at endpoint) is listed as “reduced”. Besides, the “AldeRed activity in tumor cells” value in series [4] (Hepa 1-6 tumors at endpoint, CD45 negative cells) is listed as “reduced AldeRed activity in tumor cells”. In addition, the fibrosarcoma growth result in [5] is given as “did not suppress fibrosarcoma growth”. Further, the “proliferation or viability in vitro” value in series [6] was “did not reduce proliferation or viability”. Besides, in [7], the “IC50 relative to C86” value is on record as “significantly greater than that of C86”.

Regarding `CS(=O)(=O)N1CCN(C(=O)c2cnc3ccc(F)cc3c2-c2ccc(C3(C#N)CC3)cc2)CC1` [Compound C-91, 1-(4-(6-fluoro-3-(4-(methylsulfonyl)piperazine-1-carbonyl)quinolin-4-yl)phenyl)cyclopropane-1-carbonitrile], in [1] (setting [13]), the “AUC0-∞” value was found to be 1830 ng·h/mL, the peak concentration (Cmax) worked out at 1997 ng/mL and the Vss was 1.4 L/kg. In addition, in series [1] (oral administration, 10 mg/kg), the “AUC0-∞” value is 6980 ng·h/mL, the maximum concentration (Cmax) amounted to 1530 ng/mL and the F is on record as 76%. In addition, the “RALDH activity, Aldered assay, in HCC cells” value in series [2] (FIGS. 7-8) is recorded as “significantly reduced RALDH activity”. In addition, the “RALDH activity as detected by Aldered (Aldefluor) assay” value in series [2] (SNU398 cells in vitro, 100 nM, DMSO control) is listed as “abrogated”. Besides, the AldeRed fluorescence entry in series [3] (murine HCC cell line Hepa1-6, 24 hours) is “no change in AldeRed fluorescence; also recorded: failed to reduce AldeRed fluorescence”. Besides, the “HCC cell growth in vitro” value in series [8] (SNU398, 1, 10, 100 and 1000 nM) is recorded as “did not inhibit HCC cell growth in vitro”. Also, in series [8] (live cell counts over 3 days, 7-AAD staining 24 hours), the “cell death / cell viability in human HCC cell lines” value is “not due to increased cell death or reduced cell viability”. Besides, the “transcription of other RALDH isozymes” value in series [9] is listed as “did not lead to compensatory increases in transcription”. For the same molecule, the signs of toxicity entry in series [10] was “no signs of toxicity have been observed”.

For the origin of these results see patent US20260248799A1, “COMBINATIONS OF RETINALDEHYDE DEHYDROGENASE 1 (RALDH1) INHIBITORS AND IMMUNOSTIMULATORS AND METHODS USING SAME” (The Trustees of the University of Pennsylvania, priority 2023, published 2026).
